From US20200061062A1, “INHIBITORS OF HUMAN PHOSPHATIDYLINOSITOL 3-KINASE DELTA” (ICOS Corporation, priority 2000, published 2020)
Like-named read-outs stand apart in the source and are kept apart here.

Columns and labels:
[1] = system: T cells; assay: T cell proliferation in response to costimulation of CD3+CD28; assay type: cell-based; settings: Homo sapiens, highest tested concentration 10 μM, read-out: Half-maximal inhibition of thymidine incorporation (anti-CD3- and anti-CD28-induced T cell proliferation)
Method: T cell proliferation in response to costimulation of CD3+CD28 was measured. T cells were purified from healthy human blood by negative selection using antibody coated magnetic beads according to the manufacturer's protocol (Dynal) and resuspended in RPMI. The cells were treated with either DMSO or a serial dilution of D-000 in DMSO and plated at 1×10^5 cells/well on a 96-well plate precoated with goat antimouse IgG. Mouse monoclonal anti-CD3 and anti-CD28 antibodies were then added to each well at 0.2 ng/mL and 0.2 μg/mL, respectively. The plate was incubated at 37° C. for 24 hr and [^3H]-thymidine (1 μCi/well) was added. After another 18 hr incubation the cells were harvested with an automatic cell harvester, washed and the incorporated radioactivity was quantified.

[2] = system: KU812; assay: Cancer cell proliferation, [3H]-thymidine incorporation, KU812; assay type: cell-based; settings: Homo sapiens, 120 h; KU812 line; five days; read-out: EC50, inhibition of cell growth
Method: (§1) The effect of compounds of the invention on cancer cell proliferation was evaluated by testing one of the compounds against a panel of Chronic Myeloid Leukemia (CML) cell lines, including KU812, RWLeu4, K562, and MEG-01.
(§2) The inhibitory activity of the compound (D-000, dissolved in DMSO) was determined as follows. The tested compound was added in a series of concentrations (0.001 μM to 20 μM) to 96-well microtiter plates with cells (1000 to 5000 cells/well). Plates were incubated for five days at 37° C. during which the control cultures without test compound were able to undergo at least two cell-division cycles. Cell growth was measured by incorporation of [^3H]-thymidine for eighteen hours added at days three, four, and five. Cells were transferred to a filter, washed and the radioactivity counted using a Matrix 96 beta counter (Packard). The percentage of cell growth was measured as follows: […]

[3] = system: K562; assay: Cancer cell proliferation, [3H]-thymidine incorporation, K562; assay type: cell-based; settings: K562 line; 0.001 μM to 20 μM
Method: as §1, §2

[4] = system: human B cells; assay: Antibody production by human B cells (IgG and IgM ELISA); assay type: cell-based; settings: B-cell, IL-2 and PANSORBIN stimulation
Method: Heparinized blood (200 mL) from healthy volunteers was mixed with an equal volume of D-PBS, layered on 10×10 mL FICOLL-PAQUE® (Pharmacia), and centrifuged at 1600 rpm for 30 min at room temperature. Peripheral blood mononuclear cells (PBMC) were collected from the FICOLL®/serum interface, overlayed on 10 mL fetal bovine serum (FBS) and centrifuged at 800 rpm for 10 min to remove platelets. After washing, cells were incubated with DYNAL® Antibody Mix (B cell kit) (Dynal Corp., Lake Success, N.Y.) for 20 min at 4-8° C. Following the removal of unbound antibody, PBL were mixed with anti-mouse IgG coated magnetic beads (Dynal) for 20 min at 4-8° C. with gentle shaking followed by elimination of labeled non-B cells on the magnetic bead separator. This procedure was repeated once more. The B cells were resuspended in RPMI-1640 with 10% FBS, and kept on ice until further use.
To study antibody production, B cells were aliquoted at 50-75×10^3 cells/well into 96-well plate with or without inhibitor, to which IL-2 (100 U/mL) and PANSORBIN® (Calbiochem) Staphylococcus aureus cells (1:90,000) were added. […] Samples from each condition (in triplicate) were removed, and analyzed for IgG and IgM, as measured by ELISA. […] Color development was stopped by H2SO4 solution, and plates were read on an ELISA plate reader.

[5] = system: human neutrophils; assay: Bactericidal capacity of neutrophils (Staphylococcus aureus killing); assay type: cell-based; settings: FIG. 6; versus DMSO control
Excerpt: Given that the PI3Kδ inhibitor D-000 affects certain neutrophil functions detailed above, it was of interest to see whether the compound affects neutrophil-mediated bacterial killing. The effect of D-000 on neutrophil-mediated Staphylococcus aureus killing was studied according to the method described by Clark and Nauseef (pp. 7.23.4-7.23.6 in Vol. 2, Supp. 6, Curr Protocols Immunol (Eds., Colligan et al.) (1994)). Purified human neutrophils (5×10^6 cells/mL) (treated with either DMSO or a serial dilution of D-000 in DMSO) were mixed with autologous serum. Overnight-grown S. aureus cells were washed, resuspended in HBSS, and added to the serum-opsonized neutrophils at a 10:1 ratio. Neutrophils were allowed to internalize the bacteria by phagocytosis by incubation at 37° C. for 20 min. The noninternalized bacteria were killed by 10 units/mL lysostaphin at 37° C. for 5 min and the total mixture was rotated at 37° C. Samples were withdrawn at various times for up to 90 min and the neutrophils were lysed by dilution in water. Viable bacteria were counted by plating appropriate dilutions on trypticase-soy-agar plate and counting the S. aureus colonies after overnight growth.

[6] = system: basophils; assay: Basophil histamine release assay; assay type: cell-based, human
Method: Assessment of the effect of a compound of the invention on basophil function was tested using a conventional histamine release assay, generally in accordance with the method described in Miura et al., J Immunol, 162:4198-206 (1999). Briefly, enriched basophils were preincubated with test compounds at several concentrations from 0.1 nM to 1,000 nM, for 10 min at 37° C. Then, polyclonal goat antihuman IgE (0.1 μg/mL) or fMLP was added, and allowed to incubate for an additional 30 min. Histamine released into the supernatant was measured using an automated fluorometric technique. Two compounds were tested, shown below.

| SMILES | IC50 [1] [nM] | EC50 [2] [nM] | Effect on cell growth [3] | IC50 ([4]; FIG. 7, read-out: Half-maximal inhibition of IgG production) [nM] | IC50 ([4]; FIG. 7, read-out: Half-maximal inhibition of IgM production) [nM] | Effect on neutrophil-mediated killing of S. aureus [5] | Efficacy in the inhibition of histamine release compared with D-026 ([6]; anti-IgE) | Effect on histamine release, basophils stimulated with fMLP ([6]; fMLP stimulus) |
| --- | --- | --- | --- | --- | --- | --- | --- | --- |
| O=c1c2ccccc2nc(CSc2ncnc3[nH]cnc23)n1-c1ccccc1Cl [Compound D-000, 3-(2-chlorophenyl)-2-(9H-purin-6-ylsulfanylmethyl)-3H-quinazolin-4-one] | > 10000 | ~2000 | not found to exhibit an effect | ~7000 | ~1000 | does not significantly affect | – | – |
| O=c1c2ccccc2nc(CSc2ncnc3[nH]ncc23)n1-c1ccccc1Cl [Compound D-999, 3-(2-Chlorophenyl)-2-(1H-pyrazolo[3,4-d]pyrimidin-4-ylsulfanylmethyl)-3H-quinazolin-4-one, reference compound] | – | – | – | – | – | – | less efficacious | Neither compound elicited any effect |
